The target of assay [1] is T1, human orexin 2 receptors (Homo sapiens (Human), UniProt O43614). As to the kind of experiment: Calcium Accumulation in Cells (FLIPR), antagonism of orexin A. The class given is cell-based. The settings on record: antagonism of orexin A, Cheng-Prusoff corrected; read-out: FLIPR hOx2R Ki. In outline:
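Cells expressing human orexin 2 receptor, loaded with Fluo4-AM (2 μM) plus probenecid (0.1 mM) for 1 h, then washed. Antagonism read as inhibition of the orexin A calcium fluorescence signal (FLIPR).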

For assay [2], the target named is T1, human orexin 2 receptors. As to the kind of experiment: Radioligand Binding Assay II ([3H]-SB649868 competition, cell membranes). Conditions: read-out: binding II hOx2R Kd. The method, then:
(§1) Radioligand Binding Assay II
(§2) For crude cell membrane preparations, cells (CHO, Chinese hamster ovary or HEK, human embryonic kidney) expressing human orexin 1 or human orexin 2 receptors, were washed with HEPES (10 mM, pH 7.5), scraped off the culture plates with the same buffer, and centrifuged at 4° C. for 5 min at 2500×g. The cell pellet was either stored at −80° C. or used directly. Before the experiments, cell membranes were re-suspended in binding assay buffer (10 mM HEPES, 0.5% (w/v) bovine serum albumin, pH 7.5) by homogenisation with a Polytron homogeniser at 50 Hz for 20 s. Cell membranes were also used as made available by commercial providers.
(§3) Bound radioactivity was measured, and data were analysed with the program XLFIT or Graphpad Prism. Protein concentration was determined according to the Bradford/BioRad Protein Assay Kit.
(§4) In competition experiments, cell homogenates (150 μl) were incubated in assay buffer (10 mM HEPES, pH 7.5, 0.5% (w/v) bovine serum albumin, 5 mM MgCl2, 1 mM CaCl2, and tween 0.05%) for 1 h at room temperature with about 1 nM of the radioligand [^3H]-SB649868, 66 Ci/mmole, 50 μl), and with various concentrations of compounds of the invention (50 μl) in triplicates; non-specific binding was determined in the presence of almorexant (10 μM). Reactions were terminated by vacuum filtration, 3 washes of ice cold wash buffer (Tris-HCl pH 7.4/10 mM, with NaCl 154 mM).

Assay [3] concerns the target T2, human orexin 1 receptors (Homo sapiens (Human), UniProt O43613). As to the kind of experiment: Calcium Accumulation in Cells (FLIPR), antagonism of orexin A. The class given is cell-based. The settings on record: antagonism of orexin A, Cheng-Prusoff corrected; read-out: FLIPR hOx1R Ki.
In assay [4] the target is T2, human orexin 1 receptors. The experiment in a line: Radioligand Binding Assay II ([3H]-SB649868 competition, cell membranes). Conditions: read-out: binding II hOx1R Kd. The method, then: as §1, §2, §3
as §4, with “mM). Competition data is expressed in Table 2 as Kd [μM].” for “mM).”

T1 sequence (O43614 whole entry): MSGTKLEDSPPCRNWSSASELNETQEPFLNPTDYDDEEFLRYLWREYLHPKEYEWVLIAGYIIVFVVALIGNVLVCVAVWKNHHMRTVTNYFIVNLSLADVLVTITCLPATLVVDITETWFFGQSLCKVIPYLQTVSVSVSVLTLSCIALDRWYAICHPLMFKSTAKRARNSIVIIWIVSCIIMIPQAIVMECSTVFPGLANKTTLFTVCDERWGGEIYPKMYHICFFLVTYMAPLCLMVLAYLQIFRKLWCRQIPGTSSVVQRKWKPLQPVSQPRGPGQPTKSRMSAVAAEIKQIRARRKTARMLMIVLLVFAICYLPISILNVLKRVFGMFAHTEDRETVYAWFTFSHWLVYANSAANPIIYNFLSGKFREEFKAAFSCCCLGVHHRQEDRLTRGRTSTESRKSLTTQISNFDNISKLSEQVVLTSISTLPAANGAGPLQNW
T2 sequence (O43613 whole entry): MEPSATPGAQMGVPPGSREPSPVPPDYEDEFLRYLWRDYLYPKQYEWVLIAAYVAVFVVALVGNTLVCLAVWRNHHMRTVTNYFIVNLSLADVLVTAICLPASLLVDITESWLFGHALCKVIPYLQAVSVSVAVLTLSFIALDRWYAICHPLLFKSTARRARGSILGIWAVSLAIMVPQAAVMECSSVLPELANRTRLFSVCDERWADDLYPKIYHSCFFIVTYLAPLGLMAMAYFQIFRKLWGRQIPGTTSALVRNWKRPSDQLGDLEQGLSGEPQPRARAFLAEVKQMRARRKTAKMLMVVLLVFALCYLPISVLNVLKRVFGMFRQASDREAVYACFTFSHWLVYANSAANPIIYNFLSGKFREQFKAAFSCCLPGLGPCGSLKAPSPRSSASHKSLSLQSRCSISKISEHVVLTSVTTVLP

`COc1ccc2c(c1)CC[C@@H]2NC(=O)C(C)Oc1cc(C)c2c(C3CC3)nn(C)c2n1` (single isomer, unassigned) [Example 6.71, (R or S)-2-(3-cyclopropyl-1,4-dimethyl-1H-pyrazolo[3,4-b]pyridin-6-yloxy)-N-((S)-5-methoxy-2,3-dihydro-1H-inden-1-yl)propanamide]: the Ki is 0.055 µM on human orexin 2 receptors [1] and 0.348 µM at human orexin 1 receptors [3]. The results for the Kd at human orexin 2 receptors [2] and at human orexin 1 receptors [4] were 0.095 µM and 0.589 µM, respectively.
The corresponding values for `Cc1ccc([C@H](C)NC(=O)COc2cc(C)c3c(-c4ncccc4F)nn(C)c3n2)cc1` [Example 4.1, (S)-2-((3-(3-fluoropyridin-2-yl)-1,4-dimethyl-1H-pyrazolo[3,4-b]pyridin-6-yl)oxy)-N-(1-(p-tolyl)ethyl)acetamide] are 0.035 µM, 0.133 µM, 0.022 µM and 0.027 µM.
The corresponding values for `Cc1ccc([C@H](C)NC(=O)COc2cc(C)c3c(-c4ncco4)nn(C)c3n2)cc1` [Example 4.2, (S)-2-(1,4-dimethyl-3-(oxazol-2-yl)-1H-pyrazolo[3,4-b]pyridin-6-yloxy)-N-(1-p-tolylethyl)acetamide] are 0.032 µM, 0.067 µM, 0.017 µM and 0.01 µM.
The corresponding values for `Cc1ccc([C@H](C)NC(=O)COc2cc(C)c3c(-c4cnn(C)c4)nn(C)c3n2)cc1` [Example 4.6, (S)-2-(1,4-dimethyl-3-(1-methyl-1H-pyrazol-4-yl)-1H-pyrazolo[3,4-b]pyridin-6-yloxy)-N-(1-p-tolylethyl)acetamide] are 0.089 µM, 0.247 µM, 0.082 µM and 0.076 µM.
Regarding `Cc1ccc([C@H](C)NC(=O)COc2cc(C)c3c(-c4ncccn4)nn(C)c3n2)cc1` [Example 4.7, (S)-2-(1,4-dimethyl-3-(pyrimidin-2-yl)-1H-pyrazolo[3,4-b]pyridin-6-yloxy)-N-(1-p-tolylethyl)acetamide], the figures for the Ki on human orexin 2 receptors [1] and on human orexin 1 receptors [3] were 0.009 µM and 0.004 µM, respectively. Further, the Kd amounted to 0.013 µM at human orexin 2 receptors [2] and 0.011 µM at human orexin 1 receptors [4].
Consider `Cc1ccc([C@H](C)NC(=O)COc2cc(C)c3c(-c4cnccn4)nn(C)c3n2)cc1` [Example 4.8, (S)-2-(1,4-dimethyl-3-(pyrazin-2-yl)-1H-pyrazolo[3,4-b]pyridin-6-yloxy)-N-(1-p-tolylethyl)acetamide], for which the Ki worked out at 0.015 µM on human orexin 2 receptors [1] and 0.052 µM on human orexin 1 receptors [3]. The Kd at human orexin 2 receptors [2] is 0.022 µM; at human orexin 1 receptors [4] it was 0.02 µM.
As for `Cc1ccc([C@H](C)NC(=O)COc2cc(C)c3c(-c4ccc(C)cn4)nn(C)c3n2)cc1` [Example 4.9, (S)-2-(1,4-dimethyl-3-(5-methylpyridin-2-yl)-1H-pyrazolo[3,4-b]pyridin-6-yloxy)-N-(1-p-tolylethyl)acetamide], the Ki on human orexin 2 receptors [1] stood at 0.005 µM; on human orexin 1 receptors [3] it was 0.012 µM. Moreover, the Kd was determined as 0.019 µM at human orexin 2 receptors [2] and 0.014 µM at human orexin 1 receptors [4].
The matching figures for `Cc1ccc([C@H](C)NC(=O)COc2cc(C)c3c(-c4cscn4)nn(C)c3n2)cc1` [Example 4.10, (S)-2-(1,4-dimethyl-3-(thiazol-4-yl)-1H-pyrazolo[3,4-b]pyridin-6-yloxy)-N-(1-p-tolylethyl)acetamide]: 0.005 µM, 0.005 µM, 0.006 µM and 0.005 µM.
The matching figures for `Cc1ccc([C@H](C)NC(=O)COc2cc(C)c3c(-c4nc(C)cs4)nn(C)c3n2)cc1` [Example 5.1, (S)-2-((1,4-dimethyl-3-(4-methylthiazol-2-yl)-1H-pyrazolo[3,4-b]pyridin-6-yl)oxy)-N-(1-(p-tolyl)ethyl)acetamide]: 0.01 µM, 0.01 µM, 0.003 µM and 0.004 µM.
The corresponding values for `Cc1ccc([C@H](C)NC(=O)COc2cc(C)c3c(-c4nccs4)nn(C)c3n2)cc1` [Example 5.2, (S)-2-(1,4-dimethyl-3-(thiazol-2-yl)-1H-pyrazolo[3,4-b]pyridin-6-yloxy)-N-(1-p-tolylethyl)acetamide] are 0.001 µM, 0.006 µM, 0.003 µM and 0.003 µM.
For `COc1ccnc(-c2nn(C)c3nc(OCC(=O)N[C@@H](C)c4ccc(C)cc4)cc(C)c23)n1` [Example 5.3, (S)-2-(3-(4-methoxypyrimidin-2-yl)-1,4-dimethyl-1H-pyrazolo[3,4-b]pyridin-6-yloxy)-N-(1-p-tolylethyl)acetamide], the values for the inhibitory constant (Ki) at human orexin 2 receptors [1] and at human orexin 1 receptors [3] were 0.039 µM and 0.01 µM, respectively. Also, the results for the dissociation constant (Kd) on human orexin 2 receptors [2] and at human orexin 1 receptors [4] were 0.019 µM and 0.007 µM, respectively.
The matching figures for `Cc1ccc([C@H](C)NC(=O)COc2cc(C)c3c(-c4cncs4)nn(C)c3n2)cc1` [Example 5.4, (S)-2-(1,4-dimethyl-3-(thiazol-5-yl)-1H-pyrazolo[3,4-b]pyridin-6-yloxy)-N-(1-p-tolylethyl)acetamide]: 0.011 µM, 0.179 µM, 0.026 µM and 0.046 µM.
The corresponding values for `COc1nc(-c2nn(C)c3nc(OCC(=O)N[C@@H](C)c4ccc(C)cc4)cc(C)c23)cs1` [Example 5.5, (S)-2-(3-(2-methoxythiazol-4-yl)-1,4-dimethyl-1H-pyrazolo[3,4-b]pyridin-6-yloxy)-N-(1-p-tolylethyl)acetamide] are 0.028 µM, 0.021 µM, 0.037 µM and 0.015 µM.
The matching figures for `Cc1ccc([C@H](C)NC(=O)COc2cc(C)c3c(-c4ncc(C)s4)nn(C)c3n2)cc1` [Example 5.6, (S)-2-(1,4-dimethyl-3-(5-methylthiazol-2-yl)-1H-pyrazolo[3,4-b]pyridin-6-yloxy)-N-(1-p-tolylethyl)acetamide]: 0.005 µM, 0.006 µM, 0.003 µM and 0.004 µM.
Take `Cc1ccc([C@H](C)NC(=O)COc2cc(C)c3c(-c4cccc(C)n4)nn(C)c3n2)cc1` [Example 5.7, (S)-2-(1,4-dimethyl-3-(6-methylpyridin-2-yl)-1H-pyrazolo[3,4-b]pyridin-6-yloxy)-N-(1-p-tolylethyl)acetamide]: the Ki on human orexin 2 receptors [1] turned out to be 0.056 µM; at human orexin 1 receptors [3] it was 0.046 µM. In addition, the equilibrium dissociation constant (Kd) came to 0.021 µM on human orexin 2 receptors [2] and 0.01 µM on human orexin 1 receptors [4].
`COc1ccc2c(c1)CCC2NC(=O)COc1cc(C)c2c(C3CC3)nn(C)c2n1` (stereo not drawn) [Example 6.3, 2-(3-cyclopropyl-1,4-dimethyl-1H-pyrazolo[3,4-b]pyridin-6-yloxy)-N-(5-methoxy-2,3-dihydro-1H-inden-1-yl)acetamide]: the Ki at human orexin 1 receptors [3] was 0.192 µM. Further, the dissociation constant Kd on human orexin 1 receptors [4] worked out at 0.101 µM.
The corresponding values for `COc1ccc2c(c1)CC[C@@H]2NC(=O)COc1cc(C)c2c(C3CC3)nn(C)c2n1` [Example 6.5, (S)-2-(3-cyclopropyl-1,4-dimethyl-1H-pyrazolo[3,4-b]pyridin-6-yloxy)-N-(5-methoxy-2,3-dihydro-1H-inden-1-yl)acetamide] are 0.152 µM and 0.067 µM.
`COc1ccc([C@H](C)NC(=O)COc2cc(C)c3c(-c4cc(OC)cc(OC)c4)nn(C)c3n2)cc1` [Example 6.36, (S)-2-(3-(3,5-dimethoxyphenyl)-1,4-dimethyl-1H-pyrazolo[3,4-b]pyridin-6-yloxy)-N-(1-(4-methoxyphenyl)ethyl)acetamide]: the Ki on human orexin 2 receptors [1] is 0.323 µM. For the same compound, the results for the Kd on human orexin 2 receptors [2] and at human orexin 1 receptors [4] were 0.498 µM and 0.019 µM, respectively.
For the compound `Cc1cc(OCC(=O)NC(C)c2cnc3c(ccn3C)c2)nc2c1c(C1CC1)nn2C` (stereo not drawn) [Example 8.1, 2-(3-cyclopropyl-1,4-dimethyl-1H-pyrazolo[3,4-b]pyridin-6-yloxy)-N-(1-(1-methyl-1H-pyrrolo[2,3-b]pyridin-5-yl)ethyl)acetamide], the values for the Ki on human orexin 2 receptors [1] and at human orexin 1 receptors [3] were 0.165 µM and 0.092 µM, respectively.

One may read the Ki as the dissociation constant of the complex between target and ligand, obtained from inhibition or displacement. Broadly, the Kd is the concentration at which binding is half-saturated.

(Values after patent US8742106B2 (Novartis AG, priority 2009, dated 2014).)
